Holding throughout (assay type): functional
Assay [1] can be described thus: Antimicrobial activity against Acinetobacter genomic species 13TU by agar dilution method. The following applies: Acinetobacter nosocomialis.
Assay [2] in a line: Antimicrobial activity against Acinetobacter genomic species 13TU ATCC 17903 by agar dilution method. The following applies: Acinetobacter nosocomialis.
A short description of assay [3]: Antimicrobial activity against Acinetobacter genomic species 13TU ATCC 17903 harboring pYMAb3 plasmid by agar dilution method. The following applies: Acinetobacter nosocomialis.
Assay [4] can be described thus: Antimicrobial activity against Acinetobacter genomic species 13TU ATCC 17903 harboring pOXA-58-5 plasmid by agar dilution method. The following applies: Acinetobacter nosocomialis.
A short description of assay [5]: Antimicrobial activity against Acinetobacter genomic species 13TU ATCC 17903 harboring pOXA-58-6 plasmid by agar dilution method. The following applies: Acinetobacter nosocomialis.
Assay [6] is described as follows: Antimicrobial activity against Acinetobacter genomic species 13TU ATCC 17903 harboring pOXA-58-7 plasmid by agar dilution method. The following applies: Acinetobacter nosocomialis.
The nature of assay [7]: Antimicrobial activity against Acinetobacter genomic species 13TU ATCC 17903 harboring pOXA-58-6 plasmid by Vitek II system. The following applies: Acinetobacter nosocomialis.
Assay [8] in a line: Antimicrobial activity against Acinetobacter genomic species 13TU ATCC 17903 harboring pOXA-58-7 plasmid by Vitek II system. The following applies: Acinetobacter nosocomialis.
A short description of assay [9]: Antimicrobial activity against Acinetobacter genomic species 13TU by Vitek II system. The following applies: Acinetobacter nosocomialis.
The nature of assay [10]: Antimicrobial activity against Acinetobacter genomic species 13TU ATCC 17903 by Vitek II system. The following applies: Acinetobacter nosocomialis.
Assay [11] can be described thus: Antimicrobial activity against Acinetobacter genomic species 13TU ATCC 17903 harboring pYMAb3 plasmid by Vitek II system. The following applies: Acinetobacter nosocomialis.
Assay [12] in a line: Antimicrobial activity against Acinetobacter genomic species 13TU ATCC 17903 harboring pOXA-58-5 plasmid by Vitek II system. The following applies: Acinetobacter nosocomialis.
The test system of assay [13] is Acinetobacter nosocomialis. Description: Antimicrobial activity against Acinetobacter genomic species 13TU ATCC 17903 harboring pOXA-58-5 plasmid by Etest method.
The test system of assay [14] is Acinetobacter nosocomialis. Description: Antimicrobial activity against Acinetobacter genomic species 13TU ATCC 17903 harboring pOXA-58-6 plasmid by Etest method.
The nature of assay [15]: Antimicrobial activity against Acinetobacter genomic species 13TU by Vitek II system in presence of Tazobactam. The following applies: Acinetobacter nosocomialis.
Assay [16] is described as follows: Antimicrobial activity against Acinetobacter genomic species 13TU ATCC 17903 by Vitek II system in presence of Tazobactam. The following applies: Acinetobacter nosocomialis.
Assay [17] is described as follows: Antimicrobial activity against Acinetobacter genomic species 13TU ATCC 17903 harboring pOXA-58-5 plasmid by Vitek II system in presence of Tazobactam. The following applies: Acinetobacter nosocomialis.

Molecules are shown by their SMILES. Converted amounts (≈) assume the structure as drawn. The source made the active and inactive calls. The rule behind the calls is not given here.

Consider `CC1(C)S[C@@H]2[C@H](NC(=O)[C@H](N)c3ccc(O)cc3)C(=O)N2[C@H]1C(=O)O` [AMOXICILLIN], for which the MIC in [1] was over 1020 µg/mL; in assay [2] it was 64 µg/mL (≈ 175 µM); in [3] it was 64 µg/mL (≈ 175 µM); in [4], over 1020 µg/mL; in assay [5], over 1020 µg/mL; in assay [6], 256 µg/mL (≈ 701 µM).

Take `CO/N=C(\C(=O)N[C@@H]1C(=O)N2C(C(=O)[O-])=C(C[N+]3(C)CCCC3)CS[C@H]12)c1csc(N)n1` [CEFEPIME]: the MIC was 128 µg/mL (≈ 266 µM) in assay [1]; 2 µg/mL (≈ 4.16 µM) in [2]; 2 µg/mL (≈ 4.16 µM) in assay [3]; 4 µg/mL (≈ 8.32 µM) in assay [4]; 2 µg/mL (≈ 4.16 µM) in [5].

For the molecule `CC(C)(O/N=C(\C(=O)N[C@@H]1C(=O)N2C(C(=O)[O-])=C(C[n+]3ccccc3)CS[C@H]12)c1csc(N)n1)C(=O)O` [CEFTAZIDIME], the minimal inhibitory concentration (MIC) in assay [1] amounted to 16 µg/mL (≈ 29.3 µM); in assay [2], 4 µg/mL (≈ 7.32 µM); in assay [3] it was 4 µg/mL (≈ 7.32 µM); in assay [4], 4 µg/mL (≈ 7.32 µM); in assay [5], 4 µg/mL (≈ 7.32 µM); in assay [6], 4 µg/mL (≈ 7.32 µM).

For `CO/N=C(\C(=O)N[C@@H]1C(=O)N2C(C(=O)O)=C(COC(N)=O)CS[C@H]12)c1ccco1` [CEFUROXIME], the MIC in [7] was 16 µg/mL (≈ 37.7 µM); in [8], 16 µg/mL (≈ 37.7 µM); in [9], at least 64 µg/mL; in [10], 16 µg/mL (≈ 37.7 µM); in [11] it was 16 µg/mL (≈ 37.7 µM); in [12], at least 64 µg/mL.

Consider `C[C@@H](O)[C@H]1C(=O)N2C(C(=O)O)=C(SCCNC=N)C[C@H]12` [IMIPENEM ANHYDROUS], for which the MIC worked out at 16 µg/mL (≈ 53.4 µM) in assay [1]; 0.25 µg/mL (≈ 0.835 µM) in assay [2]; 0.25 µg/mL (≈ 0.835 µM) in assay [3]; 32 µg/mL (≈ 107 µM) in [4]; 16 µg/mL (≈ 53.4 µM) in assay [5]; 0.5 µg/mL (≈ 1.67 µM) in [6]. In addition, in assay [13], the outcome was inactive.

As for `C[C@@H](O)[C@H]1C(=O)N2C(C(=O)O)=C(S[C@@H]3CN[C@H](C(=O)N(C)C)C3)[C@H](C)[C@H]12` [MEROPENEM], the MIC is 8 µg/mL (≈ 20.9 µM) in [1]; 0.5 µg/mL (≈ 1.3 µM) in assay [2]; 0.5 µg/mL (≈ 1.3 µM) in assay [3]; 16 µg/mL (≈ 41.7 µM) in [4]; 8 µg/mL (≈ 20.9 µM) in assay [5]; 0.5 µg/mL (≈ 1.3 µM) in assay [6]. In addition, the outcome in assay [14] was inactive.

Regarding `CCN1CCN(C(=O)N[C@@H](C(=O)N[C@@H]2C(=O)N3[C@@H]2SC(C)(C)[C@@H]3C(=O)O)c2ccccc2)C(=O)C1=O` [PIPERACILLIN], the MIC in assay [1] was over 1020 µg/mL; in assay [2] it was 16 µg/mL (≈ 30.9 µM); in assay [3], 16 µg/mL (≈ 30.9 µM); in assay [4], over 1020 µg/mL; in assay [5], 512 µg/mL (≈ 989 µM); in assay [6] it was 32 µg/mL (≈ 61.8 µM). The MIC is at least 128 µg/mL in [15], at most 4 µg/mL in [16] and at least 128 µg/mL in [17].

In the case of `CC1(C)S[C@@H]2[C@H](NC(=O)[C@H](C(=O)O)c3ccsc3)C(=O)N2[C@H]1C(=O)O` [TICARCILLIN], the minimal inhibitory concentration (MIC) is over 1020 µg/mL in assay [1]; 16 µg/mL (≈ 41.6 µM) in [2]; 16 µg/mL (≈ 41.6 µM) in assay [3]; over 1020 µg/mL in assay [4]; over 1020 µg/mL in assay [5]; 256 µg/mL (≈ 666 µM) in assay [6].
